Counter-ions that a name gives are not always drawn.
How the values were obtained:
MKN45 = experiment: Inhibition of cell viability (MTS), MKN45; assay type: cell-based; conditions: MKN45 cells, 96 hours incubation
Method in brief: (§1)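 Cells seeded at 2,000-7,500/well, attached ~24 h, then treated in duplicate with 1:2.5 serial dilutions at 0.5% final DMSO. Viability by MTS; EC50 from non-linear fit after background correction and normalisation to DMSO. MKN45 and EBC1 are cMET-dependent; A549 serves as negative control.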

A549 = experiment: Inhibition of cell viability (MTS), A549 (negative control line); assay type: cell-based; conditions: A549 cells (negative control), 96 hours incubation
Method in brief: as §1

[1] = target: T1, cMET enzyme (amino acids 1023-1360) (Homo sapiens, UniProt P08581); experiment: Determination of inhibition of cMET (capillary electrophoresis, phosphorylated peptide product); assay type: biochemical; conditions: 1.2 nM cMET, 50 μM ATP, 2 μM FL-2 peptide, 2 hours room temperature
T1 construct: The cMET enzyme (amino acids 1023-1360) nominally at 24 μM was held at −80° C. until use; His tag (N, cleaved yes); made in house; host or cells: Sf9 cells

EBC1 = experiment: Inhibition of cell viability (MTS), EBC1; assay type: cell-based; conditions: EBC1 cells, 96 hours incubation
Method in brief: as §1

T1 sequence (P08581 1023-1360): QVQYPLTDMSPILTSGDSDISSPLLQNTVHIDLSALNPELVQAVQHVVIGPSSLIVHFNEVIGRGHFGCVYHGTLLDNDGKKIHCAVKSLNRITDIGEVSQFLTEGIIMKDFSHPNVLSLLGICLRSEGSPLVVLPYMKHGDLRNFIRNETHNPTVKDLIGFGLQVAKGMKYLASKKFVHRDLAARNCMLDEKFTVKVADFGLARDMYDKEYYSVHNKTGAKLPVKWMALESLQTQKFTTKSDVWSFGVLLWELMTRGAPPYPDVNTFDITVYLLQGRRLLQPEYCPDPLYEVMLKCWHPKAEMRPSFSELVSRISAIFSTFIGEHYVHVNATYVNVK

Row | EC50 (MKN45; Homo sapiens, MKN-45, 96 h) | EC50 (A549; Homo sapiens, A549, 96 h) | IC50 [1] | EC50 (MKN45) | EC50 (A549) | Structure (SMILES) | EC50 (EBC1; Homo sapiens, EBC-1, 96 h) | EC50 (EBC1)
1 | < 30 nM | > 50000 nM | < 30 nM |  |  | CC(c1ccc2nc(NC(=O)C3CC3)cn2n1)c1nnc2ccc(-c3cccc(F)c3)cn12 (centres unmarked) [Compound 65, N-(6-(1-(6-(3-fluorophenyl)-[1,2,4]triazolo[4,3-a]pyridin-3-yl)ethyl)imidazo[1,2-b]pyridazin-2-yl)cyclopropanecarboxamide] | < 30 nM | 
2 | < 100 nM | > 19500 nM | 60 to 100 nM |  |  | CS(=O)(=O)c1ccc(-c2ccc3nnn(Cc4ccc5nc(NC(=O)C6CC6)cn5n4)c3c2)cc1 [Compound 17] | < 35 nM | 
3 | < 30 nM | > 50000 nM | < 30 nM |  |  | CC(c1ccc2nc(NC(=O)C3CC3)cn2n1)c1nnc2ccc(-c3cccc(C#N)c3)cn12 (centres unmarked) [Compound 57, N-(6-(1-(6-(3-cyanophenyl)-[1,2,4]triazolo[4,3-a]pyridin-3-yl)ethyl)imidazo[1,2-b]pyridazin-2-yl)cyclopropanecarboxamide] | < 30 nM | 
4 |  |  | 30 to 59 nM | 60 to 100 nM | > 50000 nM | CC(c1ccc2nc(NC(=O)C3CC3)cn2n1)c1nnc2ccc(-c3cnn(C)c3)cn12 (centres unmarked) [49 (TFA Salt), N-(6-(1-(6-(1-methyl-1H-pyrazol-4-yl)-[1,2,4]triazolo[4,3-a]pyridin-3-yl)ethyl)imidazo[1,2-b]pyridazin-2-yl)cyclopropanecarboxamide] |  | 60 to 100 nM
5 | 250 to 630 nM | > 50000 nM | 30 to 59 nM |  |  | O=C(Nc1cn2nc(Cn3nnc4ccc(-c5cnn(C[C@@H](O)CO)c5)cc43)ccc2n1)C1CC1 [Compound 23] | 100 to 199 nM | 
6 | < 30 nM | > 50000 nM | < 30 nM |  |  | O=C(Nc1cn2nc(C(F)(F)c3nnc4ccc(-c5cnn(CCO)c5)cn34)ccc2n1)C1CC1 [Compound 47, N-(6-(difluoro(6-(1-(2-hydroxyethyl)-1H-pyrazol-4-yl)-[1,2,4]triazolo[4,3-a]pyridin-3-yl)methyl)imidazo[1,2-b]pyridazin-2-yl)cyclopropanecarboxamide] | < 30 nM | 
7 | 250 to 630 nM | 600 to 1600 nM | 30 to 59 nM |  |  | O=C(Nc1cn2nc(Cn3nnc4ccc(-c5cccc(F)c5)cc43)ccc2n1)C1CC1 [Compound 14] | 100 to 199 nM | 
8 | 30 to 59 nM | > 50000 nM | < 30 nM |  |  | CNC(=O)c1ccc(-c2ccc3nnc(C(C)c4ccc5nc(NC(=O)C6CC6)cn5n4)n3c2)cc1 (centres unmarked) [Compound 68, 4-(3-(1-(2-(cyclopropanecarboxamido)imidazo[1,2-b]pyridazin-6-yl)ethyl)-[1,2,4]triazolo[4,3-a]pyridin-6-yl)-N-methylbenzamide] | 30 to 59 nM | 
9 | 250 to 630 nM | > 19500 nM | 60 to 100 nM |  |  | COc1cncc(-c2ccc3nnn(Cc4ccc5nc(NC(=O)C6CC6)cn5n4)c3c2)c1 [Compound 19] | 100 to 199 nM | 
10 |  |  | > 100 nM | 250 to 630 nM | 8000 to 25000 nM | O=C(Nc1cn2nc(Sc3nnc4ccccn34)ccc2n1)C1CC1 [3 (TFA Salt), N-(6-([1,2,4]triazolo[4,3-a]pyridin-3-ylthio)imidazo[1,2-b]pyridazin-2-yl)cyclopropanecarboxamide] |  | 100 to 199 nM
11 | 250 to 630 nM | > 50000 nM | 30 to 59 nM |  |  | O=C(Nc1cn2nc(Sc3nnc4ccc(C#CCO)cn34)ccc2n1)C1CC1 [Compound 37, N-(6-(6-(3-hydroxyprop-1-ynyl)-[1,2,4]triazolo[4,3-a]pyridin-3-ylthio)imidazo[1,2-b]pyridazin-2-yl)cyclopropanecarboxamide] | 100 to 199 nM | 

Further lines, the compound ahead of its results:

Row | Structure (SMILES) | EC50 (MKN45; Homo sapiens, MKN-45, 96 h) | EC50 (A549; Homo sapiens, A549, 96 h) | IC50 [1] | EC50 (MKN45) | EC50 (A549) | EC50 (EBC1; Homo sapiens, EBC-1, 96 h) | EC50 (EBC1)
12 | CC(c1ccc2nc(NC(=O)C3CC3)cn2n1)c1nnc2ccc(-c3ccc(F)cc3)cn12 (centres unmarked) [Compound 55, N-(6-(1-(6-(4-fluorophenyl)-[1,2,4]triazolo[4,3-a]pyridin-3-yl)ethyl)imidazo[1,2-b]pyridazin-2-yl)cyclopropanecarboxamide] | < 30 nM | > 50000 nM | < 30 nM |  |  | < 30 nM | 
13 | O=C(Nc1cn2nc(Sc3nnc4ccc(-c5csc(N6CCOCC6)n5)cn34)ccc2n1)C1CC1 [Compound 110, N-(6-(6-(2-morpholinothiazol-4-yl)-[1,2,4]triazolo[4,3-a]pyridin-3-ylthio)imidazo[1,2-b]pyridazin-2-yl)cyclopropanecarboxamide] | 100 to 249 nM | > 50000 nM | 30 to 59 nM |  |  | 30 to 59 nM | 
14 | CN(C)C(=O)Cn1cc(-c2ccc3nnc(Sc4ccc5nc(NC(=O)C6CC6)cn5n4)n3c2)cn1 [Compound 30, N-(6-(6-(1-(2-(dimethylamino)-2-oxoethyl)-1H-pyrazol-4-yl)-[1,2,4]triazolo[4,3-a]pyridin-3-ylthio)imidazo[1,2-b]pyridazin-2-yl)cyclopropanecarboxamide] | > 630 nM | > 19500 nM | 30 to 59 nM |  |  | > 200 nM | 
15 | COc1ccc(-c2ccc3nnc(C(C)c4ccc5nc(NC(=O)C6CC6)cn5n4)n3c2)cc1 (centres unmarked) [Compound 56, N-(6-(1-(6-(4-methoxyphenyl)-[1,2,4]triazolo[4,3-a]pyridin-3-yl)ethyl)imidazo[1,2-b]pyridazin-2-yl)cyclopropanecarboxamide] | < 30 nM | > 50000 nM | < 30 nM |  |  | < 30 nM | 
16 | CCS(=O)(=O)c1cccc(-c2ccc3nnn(Cc4ccc5nc(NC(=O)C6CC6)cn5n4)c3c2)c1 [Compound 18] | 100 to 249 nM | > 19500 nM | 30 to 59 nM |  |  | 100 to 199 nM | 
17 | Cc1csc(-c2ccc3nnc(C(C)c4ccc5nc(NC(=O)C6CC6)cn5n4)n3c2)c1 (centres unmarked) [Compound 62, N-(6-(1-(6-(4-methylthiophen-2-yl)-[1,2,4]triazolo[4,3-a]pyridin-3-yl)ethyl)imidazo[1,2-b]pyridazin-2-yl)cyclopropanecarboxamide] | < 30 nM | 5000 to 8000 nM | < 30 nM |  |  | < 30 nM | 
18 | CN(C)c1cccc(-c2ccc3nnc(C(F)(F)c4ccc5nc(NC(=O)C6CC6)cn5n4)n3c2)c1 [Compound 96, N-(6-((6-(3-(dimethylamino)phenyl)-[1,2,4]triazolo[4,3-a]pyridin-3-yl)difluoromethyl)imidazo[1,2-b]pyridazin-2-yl)cyclopropanecarboxamide] | < 30 nM | 8000 to 25000 nM | < 30 nM |  |  | < 30 nM | 
19 | O=C(Nc1cn2nc(C(F)(F)c3nnc4ccc(-c5cccc(F)c5)cn34)ccc2n1)C1CC1 [Compound 77, N-(6-(difluoro(6-(3-fluorophenyl)-[1,2,4]triazolo[4,3-a]pyridin-3-yl)methyl)imidazo[1,2-b]pyridazin-2-yl)cyclopropanecarboxamide] | < 30 nM | > 50000 nM | < 30 nM |  |  | < 30 nM | 
20 | Cc1csc(-c2ccc3nnc(C(F)(F)c4ccc5nc(NC(=O)C6CC6)cn5n4)n3c2)c1 [Compound 84, N-(6-(difluoro(6-(4-methylthiophen-2-yl)-[1,2,4]triazolo[4,3-a]pyridin-3-yl)methyl)imidazo[1,2-b]pyridazin-2-yl)cyclopropanecarboxamide] | < 30 nM | > 50000 nM | < 30 nM |  |  | < 30 nM | 
21 | Cc1cc(F)cc(-c2ccc3nnc(C(F)(F)c4ccc5nc(NC(=O)C6CC6)cn5n4)n3c2)c1 [Compound 97, N-(6-(difluoro(6-(3-fluoro-5-methylphenyl)-[1,2,4]triazolo[4,3-a]pyridin-3-yl)methyl)imidazo[1,2-b]pyridazin-2-yl)cyclopropanecarboxamide] | < 30 nM | > 50000 nM | < 30 nM |  |  | < 30 nM | 
22 | O=C(Nc1cn2nc(Sc3nnc4ccccn34)ccc2n1)C1CC1 [3 (free base), N-(6-([1,2,4]Triazolo[4,3-a]pyridin-3-ylthio)imidazo[1,2-b]pyridazin-2-yl)cyclopropanecarboxamide] |  |  | > 100 nM | 100 to 199 nM | 8000 to 25000 nM |  | 60 to 100 nM
23 | O=C(Nc1cn2nc(Sc3nnc4ccc(-c5nn[nH]n5)cn34)ccc2n1)C1CC1 [Compound 38, N-(6-(6-(2H-tetrazol-5-yl)-[1,2,4]triazolo[4,3-a]pyridin-3-ylthio)imidazo[1,2-b]pyridazin-2-yl)cyclopropanecarboxamide] | > 630 nM | > 50000 nM | > 100 nM |  |  | > 200 nM | 
24 | C[C@@H](c1ccc2nc(NC(=O)C3CC3)cn2n1)c1nnc2ccc(-c3cnn(C)c3)cn12 [Compound 50, (S)—N-(6-(1-(6-(1-methyl-1H-pyrazol-4-yl)-[1,2,4]triazolo[4,3-a]pyridin-3-yl)ethyl)imidazo[1,2-b]pyridazin-2-yl)cyclopropanecarboxamide] | 30 to 59 nM | > 50000 nM | < 30 nM |  |  | < 30 nM | 
25 | COCCn1cc(-c2ccc3nnc(Sc4ccc5nc(NC(=O)C6CC6)cn5n4)n3c2)cn1 [Compound 31, N-(6-(6-(1-(2-methoxyethyl)-1H-pyrazol-4-yl)-[1,2,4]triazolo[4,3-a]pyridin-3-ylthio)imidazo[1,2-b]pyridazin-2-yl)cyclopropanecarboxamide] | < 100 nM | > 50000 nM | 30 to 59 nM |  |  | < 35 nM | 
26 | O=C(Nc1cn2nc(Sc3nnc4ccc(-c5cccc(F)c5)cn34)ccc2n1)C1CC1 [Compound 44, N-(6-(6-(3-fluorophenyl)-[1,2,4]triazolo[4,3-a]pyridin-3-ylthio)imidazo[1,2-b]pyridazin-2-yl)cyclopropanecarboxamide] | < 100 nM | 600 to 1600 nM | < 30 nM |  |  | < 35 nM | 
